Results on 30 compounds are retold here after patent US12404283B2, “c-MYC mRNA translation modulators and uses thereof in the treatment of cancer” (Anima Biotech Inc., priority 2022, dated 2025).

The structures appear in SMILES notation. Where a name gives a salt, the structure may show the parent alone.

In the assay the test system is c-Myc. In words: c-Myc immunofluorescence assay. It counts as cell-based, human. The conditions noted are these: A549 cells, 24 hours treatment, anti-c-Myc immunofluorescence. A digest of the protocol: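 A549 cells grown 48 h, exposed 24 h to rising compound concentrations, then fixed, permeabilised and stained for c-Myc plus DAPI. Nuclear-segmented c-Myc fluorescence quantified by high-content imaging at 20×; EC50 from logistic dose–response fits.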
In the case of `O=C(NCCCN1CCC(F)CC1)c1ccc2c(c1)sc1nc(-c3ccc(C4CC(C(F)F)CN4)cc3F)cn12` (stereo not drawn) [Compound 542, 2-(4-(4-(difluoromethyl)pyrrolidin-2-yl)-2-fluorophenyl)-N-(3-(4-fluoropiperidin-1-yl)propyl)benzo[d]imidazo[2,1-b]thiazole-7-carboxamide], the “Myc Efficacy (−LogEC50)” value was “+++ (+++ ≥6)”.
To `C#CCCC1(CCOc2cccc(-c3cn4c(n3)sc3cc(C(=O)NCCCN(CC)CC)ccc34)c2)N=N1` [compound 327, 2-(3-(2-(3-(but-3-yn-1-yl)-3H-diazirin-3-yl)ethoxy)phenyl)-N-(3-(diethylamino)propyl)benzo [d]imidazo[2,1-b]thiazole-7-carboxamide] belongs “+ (+ >3 and <5)”; to `CC(=O)NCCCNC(=O)c1ccc2c(c1)sc1nc(-c3ccc(C)cc3)cn12` [compound 110, N-(3-acetamidopropyl)-2-(p-tolyl)benzo[d]imidazo[2,1-b]thiazole-7-carboxamide], “− (− ≤3)”.
The result for `O=C(NCCCN1CCCCC1)c1ccc2c(c1)sc1nc(-c3ccc([C@H]4CCCN4)cc3F)cn12` [compound 417, (R)-2-(2-fluoro-4-(pyrrolidin-2-yl)phenyl)-N-(3-(piperidin-1-yl)propyl)benzo[d]imidazo [2,1-b]thiazole-7-carboxamide] reads “+++ (+++ ≥6)”; that for `CNC(=O)c1ccc(-c2cn3c(n2)sc2cc(C(=O)NCC4CCC(=O)N4C)ccc23)cc1` (stereo not drawn) [compound 254, N-((1-methyl-5-oxopyrrolidin-2-yl)methyl) 2-(4-(methylcarbamoyl)phenyl) benzo[d]imidazo[2,1-b]thiazole-7-carboxamide], “+ (+ >3 and <5)”.
The result for `CCN(CC)CCCNC(=O)c1ccc2c(c1)sc1nc(-c3ccc([C@H](NC)C(F)(F)F)cc3)cn12` [compound 294, (S)-N-(3-(diethylamino)propyl)-2-(4-(2,2,2-trifluoro-1-(methylamino)ethyl)phenyl) benzo[d]imidazo[2,1-b]thiazole-7-carboxamide] reads “++ (++ ≥5 and <6)”; that for `CO[C@H]1CN[C@@H](c2ccc(-c3cn4c(n3)sc3cc(C(=O)NCCCN5CCC(F)CC5)ccc34)c(F)c2)C1` (relative stereo) [Compound 523, 2-(2-fluoro-4-((cis)-4-methoxypyrrolidin-2-yl)phenyl)-N-(3-(4-fluoropiperidin-1-yl)propyl)benzo[d]imidazo[2,1-b]thiazole-7-carboxamide], “+++ (+++ ≥6)”.
Consider `CCN(CC)CCCNC(=O)c1ccc2c(c1)sc1nc(-c3cccc(C#N)c3)cn12` [compound 145, 2-(3-cyanophenyl)-N-(3-(diethylamino)propyl)benzo [d]imidazo[2,1-b]thiazole-7-carboxamide], for which the “Myc Efficacy (−LogEC50)” value was “++ (++ ≥5 and <6)”.
The result for `CNC(=O)c1ccc(-c2cn3c(n2)sc2cc(C(=O)NCC4CCC5(CCNCC5)O4)ccc23)cc1` (stereo not drawn) [compound 230, N-((1-oxa-8-azaspiro[4.5]decan-2-yl)methyl)-2-(4-(methylcarbamoyl)phenyl) benzo[d]imidazo[2,1-b]thiazole-7-carboxamide] reads “+ (+ >3 and <5)”.
The result for `CCN(CC)CCCNC(=O)c1ccc2c(c1)sc1nc(-c3ccc(C(=O)N(C)C)cc3)cn12` [compound 154, N-(3-(diethylamino)propyl)-2-(4-(dimethylcarbamoyl)phenyl) benzo[d]imidazo[2,1-b]thiazole-7-carboxamide formate] reads “+ (+ >3 and <5)”; that for `CCN(CC)CCCNC(=O)c1ccc2c(c1)sc1nc(N3CCOCC3)cn12` [compound 162, N-(3-(diethylamino)propyl)-2-morpholinobenzo[d]imidazo [2,1-b]thiazole-7-carboxamide], “− (− ≤3)”; that for `CCN(CC)CCCN(C)C(=O)c1ccc2c(c1)sc1nc(-c3cccc(C)c3)cn12` [compound 181, N-(3-(diethylamino)propyl)-N-methyl-2-(m-tolyl)benzo[d]imidazo[2,1-b]thiazole-7-carboxamide], “++ (++ ≥5 and <6)”.
As for `CNC(=O)c1ccc(-c2cn3c(n2)sc2cc(C(=O)NC4CCCCC4N)ccc23)cc1` (stereo not drawn) [compound 205, N-(2-aminocyclohexyl)-2-(4-(methylcarbamoyl)phenyl) benzo[d]imidazo[2,1-b]thiazole-7-carboxamide], the “Myc Efficacy (−LogEC50)” value was “+ (+ >3 and <5)”.
The result for `CNC(=O)c1ccc(-c2cn3c(n2)sc2cc(C(=O)NC[C@H]4CCNC[C@@H]4O)ccc23)cc1` [compound 196, N-(((3R,4R)-3-hydroxypiperidin-4-yl)methyl)-2-(4-(methylcarbamoyl)phenyl) benzo[d]imidazo[2,1-b]thiazole-7-carboxamide] reads “+ (+ >3 and <5)”; that for `NC(=O)c1ccc2c(c1)sc1nc(-c3ccc([C@@H]4C[C@H](O)CN4)cc3F)cn12` [compound 520, 2-(2-fluoro-4-((2S,4S)-4-hydroxypyrrolidin-2-yl)phenyl)benzo[d]imidazo[2,1-b]thiazole-7-carboxamide], “++ (++ ≥5 and <6)”.
For the compound `CCN(CC)CCCNC(=O)c1ccc2c(c1)sc1nc(-c3ccc([C@H]4CCCN4)cc3)cn12` [compound 414, (R)-N-(3-(diethylamino)propyl)-2-(4-(pyrrolidin-2-yl)phenyl)benzo[d]imidazo [2,1-b]thiazole-7-carboxamide], the “Myc Efficacy (−LogEC50)” value is recorded as “+++ (+++ ≥6)”.
The result for `CNC(=O)c1ccc(-c2cn3c(n2)sc2cc(C(=O)NC4CC5(CNC5)C4)ccc23)cc1` [compound 241, 2-(4-(methylcarbamoyl)phenyl)-N-(2-azaspiro[3.3]heptan-6-yl)benzo[d]imidazo[2,1-b] thiazole-7-carboxamide] reads “+ (+ >3 and <5)”; that for `CCN(CC)CCCNC(=O)c1ccc2c(c1)sc1nc(-c3ccc(C(=O)NCCN)cc3)cn12` [compound 297, 2-(4-((2-aminoethyl)carbamoyl)phenyl)-N-(3-(diethylamino)propyl)benzo [d]imidazo[2,1-b]thiazole-7-carboxamide], “+ (+ >3 and <5)”; that for `CNC(=O)c1ccc(-c2cn3c(n2)sc2cc(C(=O)NCc4ccccc4)ccc23)cc1` [compound 275, N-benzyl-2-(4-(methylcarbamoyl)phenyl) benzo[d]imidazo[2,1-b]thiazole-7-carboxamide], “− (− ≤3)”.
Consider `CNC(=O)c1ccc(-c2cn3c(n2)sc2cc(C(=O)N(C)CCCN4CCCCC4)ccc23)cc1` [compound 329, N-methyl-2-(4-(methylcarbamoyl)phenyl)-N-(3-(piperidin-1-yl)propyl)benzo[d]imidazo [2,1-b]thiazole-7-carboxamide], for which the “Myc Efficacy (−LogEC50)” value was “+ (+ >3 and <5)”.
The result for `Cc1cccc(-c2cn3c(n2)sc2cc(C(=O)NC4CCNCC4)ccc23)c1` [compound 140, N-(piperidin-4-yl)-2-(m-tolyl)benzo[d]imidazo[2,1-b]thiazole-7-carboxamide] reads “++ (++ ≥5 and <6)”; that for `O=C(NCCCN1CCC(F)CC1)c1ccc2c(c1)sc1nc(-c3c(F)cc(C4CCCN4)cc3C3CC3)cn12` (stereo not drawn) [compound 475, 2-(2-cyclopropyl-6-fluoro-4-(pyrrolidin-2-yl)phenyl)-N-(3-(4-fluoropiperidin-1-yl)propyl)benzo[d]imidazo[2,1-b]thiazole-7-carboxamide], “++ (++ ≥5 and <6)”; that for `CCN(CC)CCCNC(=O)c1ccc2c(c1)sc1nc(-c3ccc(CN(C)C)cc3)cn12` [compound 276, N-(3-(diethylamino)propyl)-2-(4-((dimethylamino)methyl)phenyl)benzo[d]imidazo[2,1-b]thiazole-7-carboxamide], “+++ (+++ ≥6)”.
The result for `CNC(=O)c1ccc(-c2cn3c(n2)sc2cc(C(=O)N4CCN(CC(N)=O)CC4)ccc23)cc1` [compound 250, 4-(7-(4-(2-amino-2-oxoethyl)piperazine-1-carbonyl)benzo[d]imidazo [2,1-b]thiazol-2-yl)-N-methylbenzamide] reads “+ (+ >3 and <5)”; that for `CN1CCC[C@H](NC(=O)c2ccc3c(c2)sc2nc(-c4ccc(C5CCCN5)cc4F)cn23)C1` (stereo partly drawn) [Compound 491S, 2-(2-fluoro-4-(pyrrolidin-2-yl)phenyl)-N—((S)-1-methylpiperidin-3-yl)benzo[d]imidazo[2,1-b]thiazole-7-carboxamide], “+++ (+++ ≥6)”.
To `CCN(CCCN(C)C(=O)c1ccc2c(c1)sc1nc(-c3cccc(C)c3)cn12)CC(F)(F)F` [compound 193, N-(3-(ethyl(2,2,2-trifluoroethyl)amino)propyl) N-methyl-2-(m-tolyl)benzo[d]imidazo[2,1-b]thiazole-7-carboxamide] belongs “+ (+ >3 and <5)”; to `CNC(=O)c1ccc(-c2cn3c(n2)sc2cc(C(=O)NCCc4cnn(C)c4)ccc23)cc1` [compound 202, N-(2-(1-methyl-1H-pyrazol-4-yl)ethyl)-2-(4-(methylcarbamoyl)phenyl) benzo[d]imidazo[2,1-b]thiazole-7-carboxamide], “− (− ≤3)”; to `CNC(=O)c1ccc(-c2cn3c(n2)sc2cc(C(=O)NCC4CC(=O)N(C)C4)ccc23)cc1` (stereo not drawn) [compound 252, N-((1-methyl-5-oxopyrrolidin-3-yl)methyl)-2-(4-(methylcarbamoyl)phenyl) benzo[d]imidazo[2,1-b]thiazole-7-carboxamide], “+ (+ >3 and <5)”.
For `CC[C@H](NC(=O)c1ccc2c(c1)sc1nc(-c3ccc(C(=O)NC)cc3)cn12)c1ccnn1C` [compound 242, (S)-N-(1-(1-methyl-1H-pyrazol-5-yl)propyl)-2-(4-(methylcarbamoyl)phenyl) benzo[d]imidazo[2,1-b] thiazole-7-carboxamide], the “Myc Efficacy (−LogEC50)” value was “+ (+ >3 and <5)”.
The result for `CNC(=O)c1ccc(-c2cn3c(n2)sc2cc(C(=O)NCCCOC)ccc23)cc1` [compound 189, N-(3-methoxypropyl)-2-(4-(methylcarbamoyl)phenyl) benzo[d]imidazo[2,1-b]thiazole-7-carboxamide] reads “− (− ≤3)”.
